Among the test systems are SNB-75 CNS; NCI-H460 lung; SK-MEL-28 melanoma; MDA-MB-231 breast; MALME-3M melanoma; 786-0 renal; UO-31 renal; IGROV1 ovarian; SNB-19 CNS; MOLT-4 leukemia.
What all share (assay): DTP human tumour cell line panel, 48 h

Each structure is given as a SMILES string.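 Protocol summary: plate cells (96-well), add compound at 5 concentrations, incubate 48 h, interpolate endpoints linearly. TGI marks complete inhibition of growth.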

As for `O=c1[nH]nc(-c2ccccc2)n1/N=C/c1cccc([N+](=O)[O-])c1`, the total growth inhibition concentration (TGI) with SNB-75 CNS, in the assay with NCI-H460 lung, in the assay with SK-MEL-28 melanoma, in the assay with MDA-MB-231 breast, with MALME-3M melanoma and in the assay with 786-0 renal was above 100 µM throughout. Moreover, the total growth inhibition concentration (TGI) in the assay on UO-31 renal, with IGROV1 ovarian, in the assay with SNB-19 CNS and with MOLT-4 leukemia was above 100 µM throughout.
With `COc1c2c(nc3ccccc13)-c1cc(C(CC(=O)OC(C)(C)C)C(=O)OC(C)C)c(CO)c(=O)n1C2` (stereo not given), the total growth inhibition concentration (TGI) – broadly, the concentration giving total growth inhibition – was above 100 µM in the assay with SNB-75 CNS; above 86.1 µM with NCI-H460 lung; above 100 µM in the assay with SK-MEL-28 melanoma; above 100 µM in the assay on MDA-MB-231 breast; above 100 µM with MALME-3M melanoma; above 100 µM with 786-0 renal. Also, the TGI in the assay with UO-31 renal is above 89.5 µM; with IGROV1 ovarian, above 100 µM; in the assay on SNB-19 CNS, above 100 µM; in the assay with MOLT-4 leukemia, above 100 µM.
For `Cc1ccc(O)c(C2=CC3=NNC(=O)C3C(c3cccc(Cl)c3)C2)c1` (stereo not given), the TGI in the assay on SNB-75 CNS is 76.2 µM; with NCI-H460 lung, above 100 µM; in the assay with SK-MEL-28 melanoma it was above 100 µM; in the assay with MDA-MB-231 breast it was above 100 µM; in the assay with MALME-3M melanoma it was 94 µM; in the assay on 786-0 renal it was above 100 µM. Also, the total growth inhibition concentration (TGI) in the assay on UO-31 renal, in the assay on IGROV1 ovarian, with SNB-19 CNS and in the assay on MOLT-4 leukemia was above 100 µM throughout.
Consider `CO/N=C\c1ccc2c(c1)Sc1ccccc1O2`, for which the TGI in the assay on SNB-75 CNS, with NCI-H460 lung, with SK-MEL-28 melanoma, with MDA-MB-231 breast, with MALME-3M melanoma and in the assay on 786-0 renal was above 100 µM each time. Besides, the TGI in the assay with UO-31 renal, in the assay on IGROV1 ovarian, in the assay with SNB-19 CNS and in the assay with MOLT-4 leukemia was above 100 µM each time.
Regarding `COc1ccc2oc(S(=O)(=O)N3CC(CCl)c4ccc(N)cc43)cc2c1` (stereo not given), the concentration for total growth inhibition (TGI) in the assay with SNB-75 CNS was above 100 µM; with NCI-H460 lung, 10.6 µM; with SK-MEL-28 melanoma it was above 100 µM; with MDA-MB-231 breast, above 24.9 µM; with MALME-3M melanoma, above 100 µM; in the assay on 786-0 renal, above 10.6 µM. Moreover, the concentration for total growth inhibition (TGI) in the assay on UO-31 renal was above 100 µM; with IGROV1 ovarian, above 34.1 µM; in the assay on SNB-19 CNS, above 100 µM; in the assay on MOLT-4 leukemia it was above 54.5 µM.
As to `CC(=O)O[C@H]1CC[C@@]2(C)C(=CC[C@@H]3[C@@H]2CC[C@]2(C)c4c(n[nH]c4C)C[C@@H]32)C1`, the concentration for total growth inhibition (TGI) was determined as 25.3 µM in the assay on SNB-75 CNS; 32.4 µM in the assay on NCI-H460 lung; 45.2 µM in the assay with SK-MEL-28 melanoma; 38.4 µM in the assay on MDA-MB-231 breast; 12.7 µM in the assay with MALME-3M melanoma; 35.1 µM in the assay on 786-0 renal. Besides, the TGI was determined as 33.8 µM with UO-31 renal, 38.8 µM in the assay on IGROV1 ovarian, 42.3 µM with SNB-19 CNS and 53.4 µM with MOLT-4 leukemia.
As to `Cn1c(=Nc2ccc(Cl)cc2)sc2ccccc21`, the TGI in the assay with SNB-75 CNS, in the assay with NCI-H460 lung, in the assay with SK-MEL-28 melanoma, in the assay with MDA-MB-231 breast, in the assay with MALME-3M melanoma and in the assay on 786-0 renal was above 100 µM each time. For the same molecule, the total growth inhibition concentration (TGI) in the assay with UO-31 renal, with IGROV1 ovarian, in the assay on SNB-19 CNS and with MOLT-4 leukemia was above 100 µM throughout.
On to `Cc1nc2ccc(S(=O)(=O)NS(=O)(=O)c3ccc(-c4ccccc4)cc3)cc2c(=O)n1NS(=O)(=O)c1ccc(-c2ccccc2)cc1`, for which the TGI in the assay on SNB-75 CNS, with NCI-H460 lung, with SK-MEL-28 melanoma, in the assay with MDA-MB-231 breast, with MALME-3M melanoma and in the assay with 786-0 renal was above 100 µM throughout. The TGI with UO-31 renal, in the assay on IGROV1 ovarian, with SNB-19 CNS and with MOLT-4 leukemia was above 100 µM throughout.
For the molecule `COc1ccc(-c2c(-c3ccccc3)c(C)c3ccccn23)cc1`, the TGI in the assay with SNB-75 CNS, with NCI-H460 lung, with SK-MEL-28 melanoma, with MDA-MB-231 breast, with MALME-3M melanoma and in the assay with 786-0 renal was above 100 µM throughout. In addition, the TGI with UO-31 renal, in the assay with IGROV1 ovarian, with SNB-19 CNS and with MOLT-4 leukemia was above 100 µM throughout.
`C=C1C[C@@H](O)[C@@H](Br)C(C)(C)[C@@]12C=CC(=O)CC2`: the TGI with SNB-75 CNS, in the assay with NCI-H460 lung, in the assay on SK-MEL-28 melanoma, in the assay on MDA-MB-231 breast, in the assay with MALME-3M melanoma and in the assay on 786-0 renal was above 100 µM each time. In addition, the TGI with UO-31 renal was above 100 µM; in the assay with IGROV1 ovarian, above 48.3 µM; in the assay with SNB-19 CNS it was above 100 µM; in the assay on MOLT-4 leukemia it was above 100 µM.
Regarding `CCOC(=O)C(=CNc1ccc(N(C2=NCC(C)S2)c2ccc(F)c(Cl)c2)cc1)C(=O)OCC` (stereo not given), the concentration for total growth inhibition (TGI) in the assay with SNB-75 CNS was 43.7 µM; with NCI-H460 lung it was 49.7 µM; in the assay on SK-MEL-28 melanoma it was 42.5 µM; in the assay on MDA-MB-231 breast, 30.9 µM; with MALME-3M melanoma, 39.4 µM; in the assay on 786-0 renal, 33.2 µM. Moreover, the TGI came to 38.6 µM in the assay on UO-31 renal, 44.5 µM in the assay on IGROV1 ovarian, 54.5 µM with SNB-19 CNS and 41.6 µM in the assay with MOLT-4 leukemia.
Consider `CCC(C)C(N)C(=O)N/N=C\c1c2c(nc3ccccc13)-c1cc3c(c(=O)n1C2)COC(=O)[C@]3(O)CC` (stereo not given in full), for which the total growth inhibition concentration (TGI) in the assay with SNB-75 CNS was 13.3 µM; with NCI-H460 lung, 1.5 µM; in the assay on SK-MEL-28 melanoma, above 100 µM; in the assay on MDA-MB-231 breast it was above 82.2 µM; with MALME-3M melanoma, 19.7 µM; in the assay on 786-0 renal, 1.12 µM. The concentration for total growth inhibition (TGI) in the assay on UO-31 renal was 1.4 µM; with IGROV1 ovarian, above 47 µM; in the assay on SNB-19 CNS, 0.69 µM; with MOLT-4 leukemia, 1.86 µM.
`COc1cc(/C=C2\C[C@H]3[C@@H]4CCC5=CC(=O)CC[C@]5(C)[C@H]4CC[C@]3(C)C2=O)cc(OC)c1OC`: the TGI in the assay on SNB-75 CNS was above 89.4 µM; in the assay on NCI-H460 lung, above 100 µM; with SK-MEL-28 melanoma it was above 100 µM; in the assay on MDA-MB-231 breast, above 100 µM; with MALME-3M melanoma, above 100 µM; in the assay with 786-0 renal, above 100 µM. Also, the TGI in the assay on UO-31 renal, in the assay on IGROV1 ovarian, in the assay with SNB-19 CNS and with MOLT-4 leukemia was above 100 µM each time.
